How the values were obtained:
CB2 mRNA = test: Gene expression (real-time PCR) of cannabinoid receptor 2 in duodenal and ileal mucosa at d14; type: in vivo, pigs
Procedure: At the end of the study, 8 animals from each treatment group were sacrificed, samples were collected, and analysed. Duodenal and ileal mucosal scrapings were collected. The duodenum and ileum were longitudinally cut to expose the mucosa, washed with a phosphate-buffered saline solution to remove mucus and digesta, then scraped gently, packed, immediately frozen in liquid nitrogen and stored at -80° C. until the analyses of gene and protein expression. Gene expression was analysed using the method reported by […] et al. [The Journal of Nutrition. 2011; 141:2139-45]. Duodenal and ileal scraping samples obtained on d14 of the study were disrupted by grinding them in liquid nitrogen with mortar and pestle, and then homogenised using a TissueLyser (Qiagen, Hilden, Germany). Total RNA was isolated using a NucleoSpin® RNA Kit (Macherey-Nagel, Düren, Germany) according to the manufacturer's instructions. Genomic DNA contamination was removed by treating the samples with the deoxyribonuclease supplied in the extraction kit ([…], RNase-free; Macherey-Nagel). The RNA yield and quality were determined spectrophotometrically by measuring the absorbance at 260 and 280 nm (A260 and A280 nm, respectively) (Microvolume Mode with SmartPath® Technology, Denovix). One microgram of RNA was reverse transcribed using the iScript cDNA Synthesis Kit (Bio-Rad Laboratories Inc., Hercules, Calif., USA) according to the manufacturer's instructions. Real-time PCR was performed using an iCycler Thermal Cycler system and SybrGreen Supermix (Bio-Rad Laboratories Inc.). The thermocycling protocol provided for an initial denaturation step for 1 min and 30 seconds at 95° C., followed by 40 cycles of denaturation at 95° C. for 15 seconds and 30 seconds of annealing and extension at 60° C. After amplification, a melting curve analysis was performed for all the samples, with slow heating from 55° C. to 95° C. at a rate of 0.5° C./s to validate the absence of non-specific products. Gene expression was normalised to a housekeeping gene (HK) encoding portions of porcine ribosomal subunit 60 S, in particular ribosomal protein […] (RPL35). The average threshold cycle (CT) was determined for each gene of interest, and the geometric average was calculated for HK by assuming that CT is the number of cycles required to reach a fixed arbitrary threshold. Delta CT was calculated, then a modification of the 2^-ΔΔCT method [Livak K J, et al., Methods 2001; 25:402-8] was used to analyse the relative expression (fold changes), which was calculated relative to the control group. The sequences, accession numbers in the EMBL database/GenBank, expected product lengths and references for porcine primers are reported in Table 2. […]

TRPV1 mRNA = test: Gene expression (real-time PCR) of gut chemosensing marker TRPV1 in duodenal and ileal mucosa at d14; type: in vivo, pigs; details: for TRPV1 mRNA levels compared to the control group: ileum, d14, P=0.0183
Procedure: (§1) At the end of the study, 8 animals from each treatment group were sacrificed, samples were collected, and analysed. Duodenal and ileal mucosal scrapings were collected. The duodenum and ileum were longitudinally cut to expose the mucosa, washed with a phosphate-buffered saline solution to remove mucus and digesta, then scraped gently, packed, immediately frozen in liquid nitrogen and stored at -80° C. until the analyses of gene and protein expression. Gene expression was analysed using the method reported by […] et al. [The Journal of Nutrition. 2011; 141:2139-45]. Duodenal and ileal scraping samples obtained on d14 of the study were disrupted by grinding them in liquid nitrogen with mortar and pestle, and then homogenised using a TissueLyser (Qiagen, Hilden, Germany). Total RNA was isolated using a NucleoSpin® RNA Kit (Macherey-Nagel, Düren, Germany) according to the manufacturer's instructions. Genomic DNA contamination was removed by treating the samples with the deoxyribonuclease supplied in the extraction kit ([…], RNase-free; Macherey-Nagel). The RNA yield and quality were determined spectrophotometrically by measuring the absorbance at 260 and 280 nm (A260 and A280 nm, respectively) (Microvolume Mode with SmartPath® Technology, Denovix). One microgram of RNA was reverse transcribed using the iScript cDNA Synthesis Kit (Bio-Rad Laboratories Inc., Hercules, Calif., USA) according to the manufacturer's instructions. Real-time PCR was performed using an iCycler Thermal Cycler system and SybrGreen Supermix (Bio-Rad Laboratories Inc.). […] The average threshold cycle (CT) was determined for each gene of interest, and the geometric average was calculated for HK by assuming that CT is the number of cycles required to reach a fixed arbitrary threshold. Delta CT was calculated, then a modification of the 2^-ΔΔCT method [Livak K J, et al., Methods 2001; 25:402-8] was used to analyse the relative expression (fold changes), which was calculated relative to the control group. […]

[1] = weaned piglets, 25.5-510 mg thymol/kg feed
Procedure: […] piglets (Duroc—Large White) weaned at 28 days of age and with a body weight (BW) of 7.71±1.00 kg were divided into 40 pens (4 piglets per pen, castrated males and females were placed in separate pens) and randomly assigned to one of the following experimental groups (n=32): control group fed with the basal diet (T1), a group fed with the basal diet supplemented with 25.5 mg of thymol/kg feed (T2), a group fed with the basal diet supplemented with 51 mg of thymol/kg feed (T3), a group fed with the basal diet supplemented with 153 mg of thymol/kg feed (T4) and a group fed with the basal diet supplemented with 510 mg of thymol/kg feed (T5). Thymol was provided in a form embedded (microencapsulated) in a lipid matrix (Vetagro SpA, Reggio Emilia, Italy). Concentrations of thymol were selected to meet or exceed the upper limit of inclusion in food and feed established by the European Agency for the Evaluation of Medicinal Products and for the feed. The basal feed was formulated to meet or exceed the nutritional requirements of pigs according to the National Research Council, and feed and water were provided ad libitum (the composition of the basal diet is reported in Table 1). The health condition of the animals was monitored during the study. The piglets were individually weighed at the beginning (day 0) and end (day 14) of the study. Growth parameters, such as FI, ADFI, ADG and F:G (FI—feed intake; ADFI—Average daily feed intake; ADG—Average daily gain; F:G—Feed to gain ratio), were measured in the animals housed in each pen on day 14 (d14) of the experiment.
Animals were blocked in a completely randomised design and data were analysed using GraphPad Prism® software (GraphPad Software, Inc., La Jolla, Calif., USA). Data were analysed using one-way ANOVA followed by Tukey's post hoc test to detect differences among treatments. The pen was the experimental unit for growth performance, whereas the pig was the experimental unit for gene expression. Differences were considered significant at P<0.05, and trends were defined at 0.05≤P<0.1.

FAAH mRNA = test: Gene expression (real-time PCR) of ECS enzyme FAAH in duodenal and ileal mucosa at d14; type: in vivo, pigs
Procedure: (§2) At the end of the study, 8 animals from each treatment group were sacrificed, samples were collected, and analysed. Duodenal and ileal mucosal scrapings were collected. The duodenum and ileum were longitudinally cut to expose the mucosa, washed with a phosphate-buffered saline solution to remove mucus and digesta, then scraped gently, packed, immediately frozen in liquid nitrogen and stored at -80° C. until the analyses of gene and protein expression. Gene expression was analysed using the method reported by […] et al. [The Journal of Nutrition. 2011; 141:2139-45]. […] The RNA yield and quality were determined spectrophotometrically by measuring the absorbance at 260 and 280 nm (A260 and A280 nm, respectively) (Microvolume Mode with SmartPath® Technology, Denovix). […] The average threshold cycle (CT) was determined for each gene of interest, and the geometric average was calculated for HK by assuming that CT is the number of cycles required to reach a fixed arbitrary threshold. Delta CT was calculated, then a modification of the 2^-ΔΔCT method [Livak K J, et al., Methods 2001; 25:402-8] was used to analyse the relative expression (fold changes), which was calculated relative to the control group. […]

CB1 mRNA = test: Gene expression (real-time PCR) of cannabinoid receptor 1 in duodenal and ileal mucosa at d14; type: in vivo, pigs
Procedure: as §1

OR1G1 mRNA = test: Gene expression (real-time PCR) of gut chemosensing marker OR1G1 in duodenal and ileal mucosa at d14; type: in vivo, pigs
Procedure: as §2

Cc1ccc(C(C)C)c(O)c1 [thymol]
not observed: differences in average daily feed intake (ADFI) among the treatment groups ([1]; day 14, data not shown) | differences in average daily gain (ADG) among the treatment groups ([1]; day 14, data not shown) | differences in body weight (BW) among the treatment groups ([1]; day 14, data not shown) | differences in feed intake (FI) among the treatment groups ([1]; day 14, data not shown) | differences in feed to gain ratio (F:G) among the treatment groups ([1]; day 14, data not shown) | differences in FAAH mRNA levels (FAAH mRNA; duodenum, all thymol groups (25.5-510 mg/kg feed), d14)
higher levels: OR1G1 mRNA expression compared to the control group (OR1G1 mRNA; duodenum, 510 mg thymol/kg feed (T5), d14, P=0.0210) | OR1G1 mRNA expression compared to the control group (OR1G1 mRNA; ileum, 153 mg thymol/kg feed (T4), d14, P=0.0235)
Significantly increased: levels of the CB2 mRNA compared to the control group (CB2 mRNA; duodenum, group T4 (153 mg thymol/kg feed), d14, P=0.004) | levels of the CB2 mRNA compared to the control group (CB2 mRNA; duodenum, group T5 (510 mg thymol/kg feed), d14, P=0.004) | levels of the CB2 mRNA compared to the control group (CB2 mRNA; ileum, group T4 (153 mg thymol/kg feed), d14, P=0.0162) | levels of the CB2 mRNA compared to the control group (CB2 mRNA; ileum, group T5 (510 mg thymol/kg feed), d14, P=0.0162)
significantly increased: FAAH mRNA levels compared to the control group (FAAH mRNA; ileum, group T4 (153 mg thymol/kg feed), d14, P=0.0028) | level of the CB1 mRNA compared to the control group (CB1 mRNA; duodenum, group T5 (510 mg thymol/kg feed), d14, P=0.0209) | level of the CB1 mRNA compared to the control group (CB1 mRNA; ileum, group T4 (153 mg thymol/kg feed), d14, P=0.0054) | level of the CB1 mRNA compared to the control group (CB1 mRNA; ileum, group T5 (510 mg thymol/kg feed), d14, P=0.0054)
no mortality: mortality ([1]; 14 days)
increased: TRPV1 mRNA level (TRPV1 mRNA; duodenum, 510 mg thymol/kg of feed, d14, P=0.0382) | TRPV1 mRNA levels compared to the control group (TRPV1 mRNA; group T4 (153 mg thymol/kg feed)) | TRPV1 mRNA levels compared to the control group (TRPV1 mRNA; group T5 (510 mg thymol/kg feed))
good health conditions: health conditions ([1]; 14 days)

From US20230233482A1, “COMPOSITIONS COMPRISING THYMOL FOR USE IN THE TREATMENT OF INFLAMMATORY OR FUNCTIONAL BOWEL DISORDERS BY MODULATING THE ENDOCANNABINOID SYSTEM” (priority 2020, published 2023)
